Measured values reported in publication PMC6099706, “Anti-Mycobacterium tuberculosis Activity of Esters of Quinoxaline 1,4-Di-N-Oxide” (Molecules : A Journal of Synthetic Chemistry and Natural …, 2018).
Converted amounts (≈) assume the structure as drawn.

Key:
[1] = test system: Mycobacterium tuberculosis strain H37Rv; assay: microplate Alamar blue assay (MABA); format: cell-based; settings: Mycobacterium tuberculosis, H37RV, M. tuberculosis H37Rv; lowest concentration effecting 90% inhibition
[2] = test system: nonreplicating persistent (NRP) M. tuberculosis strain; assay: microbe, parasite or virus in culture; format: cell-based, Mycobacterium tuberculosis; settings: Mycobacterium tuberculosis; nonreplicating persistent strain; read-out: LORA MIC
[3] = test system: M. tb H37Rv; assay: MIC on M. tb H37Rv (Table 4 panel); format: cell-based; settings: Mycobacterium tuberculosis
[4] = test system: M. fortuitum; assay: MIC on nontuberculous Mycobacterium clinical isolate; format: cell-based; settings: Mycolicibacterium fortuitum
[5] = test system: M. abscessus; assay: as above; format: cell-based; settings: Mycobacteroides abscessus
[6] = test system: M. chelonae; assay: as above; format: cell-based; settings: Mycobacteroides chelonae
[7] = test system: M. avium; assay: as above; format: cell-based
[8] = test system: M. smegmatis; assay: as above; format: cell-based; settings: Mycolicibacterium smegmatis
[9] = cytotoxicity on macrophages (Alamar blue) and selectivity index; format: cell-based, mouse; settings: mouse, J774A.1 macrophage cells; for CC50 at 96 h: cytotoxicity on macrophage cell J774A.1 at 96 h; for CC50 at 6 h: cytotoxicity on macrophage cell J774A.1 at 6 h
Description: (§1) The determination of the half maximal cytotoxicity concentration (CC50) of the compounds T-006, T-011, T-018, T-022, T-069, T-085, T-088, and T-089 was carried out on the mouse macrophage cell line J774A.1 (ATCC TIB-67). Briefly, cell monolayers were prepared in 96-well plates with 10,000 cells per well in Ham’s F-12 medium supplemented with 10% Fetal bovine serum (FBS, By products, Guadalajara, Mexico) and antibiotics (penicillin and gentamicin). Five concentrations from 100 to 0.5 μg/mL of each of the compounds were tested. The cells were incubated for a period of 6 h (^−) or 96 h (^+). Before completing this period, 20 μL of Alamar blue solution was added to each well, quantifying the relative fluorescence units in a fluorometer (Fluoroskan Ascent FL, Labsystems). The percentage of cytotoxicity at each concentration was determined by comparing the values against the control of cells without treatment. The CC50 was determined with the Probit regression analysis (MedCalc Statistical Software version 18.5, Ostend, Belgium). Selectivity index was calculated as the ratio of the CC50 on the macrophage cell line J774A.1 and the MIC value against M. tuberculosis strain H37Rv.

[10] = test system: mouse macrophage cell line J774A.1; assay: as above; format: cell-based; settings: ratio of CC50 on J774A.1 and MIC against M. tuberculosis H37Rv
Description: as §1

[11] = biological target: M. tuberculosis gyrase (GyrA and Gyr B subunits) (Mycobacterium tuberculosis, UniProt P9WG45+P9WG47); assay: M. tuberculosis gyrase supercoiling assay; format: biochemical; settings: at 50 μM
Sequence of M. tuberculosis gyrase (GyrA and Gyr B subunits) (P9WG45 whole entry): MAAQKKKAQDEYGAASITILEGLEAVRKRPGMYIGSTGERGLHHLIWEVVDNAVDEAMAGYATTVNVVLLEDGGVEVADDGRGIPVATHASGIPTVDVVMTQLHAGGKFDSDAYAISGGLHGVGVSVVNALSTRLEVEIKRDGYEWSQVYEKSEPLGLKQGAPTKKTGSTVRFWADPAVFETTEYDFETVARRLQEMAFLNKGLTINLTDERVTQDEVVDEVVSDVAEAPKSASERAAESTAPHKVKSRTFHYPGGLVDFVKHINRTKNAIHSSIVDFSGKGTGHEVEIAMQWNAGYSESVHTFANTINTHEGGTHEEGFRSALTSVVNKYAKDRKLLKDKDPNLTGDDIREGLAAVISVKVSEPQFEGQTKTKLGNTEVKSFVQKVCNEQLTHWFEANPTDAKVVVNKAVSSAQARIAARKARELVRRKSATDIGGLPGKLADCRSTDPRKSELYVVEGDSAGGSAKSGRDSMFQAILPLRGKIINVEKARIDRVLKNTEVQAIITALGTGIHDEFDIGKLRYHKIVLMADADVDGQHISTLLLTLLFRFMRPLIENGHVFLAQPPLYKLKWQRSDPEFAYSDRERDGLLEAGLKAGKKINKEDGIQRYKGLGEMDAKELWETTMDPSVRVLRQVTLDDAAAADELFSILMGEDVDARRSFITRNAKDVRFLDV
Sequence of M. tuberculosis gyrase (GyrA and Gyr B subunits) (P9WG47 whole entry): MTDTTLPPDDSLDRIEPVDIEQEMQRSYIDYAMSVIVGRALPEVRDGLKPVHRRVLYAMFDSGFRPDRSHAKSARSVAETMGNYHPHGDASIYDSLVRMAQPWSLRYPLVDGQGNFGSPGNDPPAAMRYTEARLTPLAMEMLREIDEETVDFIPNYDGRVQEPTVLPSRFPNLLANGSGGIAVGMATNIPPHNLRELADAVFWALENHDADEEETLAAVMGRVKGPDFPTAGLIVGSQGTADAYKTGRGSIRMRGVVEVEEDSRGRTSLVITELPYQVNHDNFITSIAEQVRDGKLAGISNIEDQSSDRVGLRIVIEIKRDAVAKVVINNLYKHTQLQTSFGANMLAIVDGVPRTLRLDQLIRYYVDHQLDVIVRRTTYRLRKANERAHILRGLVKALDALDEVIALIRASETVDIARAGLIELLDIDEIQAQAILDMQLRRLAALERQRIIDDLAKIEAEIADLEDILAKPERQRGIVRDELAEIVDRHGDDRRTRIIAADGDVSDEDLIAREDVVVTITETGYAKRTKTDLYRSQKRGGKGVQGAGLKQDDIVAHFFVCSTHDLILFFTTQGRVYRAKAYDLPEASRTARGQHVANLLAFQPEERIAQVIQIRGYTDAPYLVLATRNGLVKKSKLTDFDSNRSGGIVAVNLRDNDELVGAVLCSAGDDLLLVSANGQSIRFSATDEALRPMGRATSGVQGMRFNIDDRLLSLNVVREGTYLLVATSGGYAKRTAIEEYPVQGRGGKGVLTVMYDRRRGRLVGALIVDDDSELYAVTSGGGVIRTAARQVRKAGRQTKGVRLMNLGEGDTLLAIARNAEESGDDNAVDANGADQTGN
Description: The activity of the enzyme was determined prior to the testing of the quinoxaline 1,4-di-N-oxide derivatives and 1 U was defined as the amount of enzyme required to just fully supercoil the substrate under test conditions. Compounds were tested at 50 μM. Final DMSO concentration in the assays was 1% (v/v).
1 U of M. tuberculosis gyrase (GyrA and Gyr B subunits) (final concentration in assay 50 nM) was incubated with 0.5 μg of relaxed pBR322 DNA in a 30 μL reaction at 37 °C for 30 min under the following conditions: 50 mM HEPES. KOH (pH 7.9), 6 mM magnesium acetate, 4 mM DTT, 1 mM ATP, 100 mM potassium glutamate, 2 mM spermidine and 0.05 mg/mL albumin.
Each reaction was stopped by the addition of 30 μL chloroform/iso-amyl alcohol (26:1) and 20 μL Stop Dye (40% sucrose, 100 mM Tris.HCl (pH 7.5), 10 mM EDTA, 0.5 μg/mL bromophenol blue), before being loaded on a 1.0% TAE (Tris.acetate […], EDTA […]) gel run at 80 V for 2 h.
Bands were visualized by ethidium staining for 10 min, destained for 10 min in water, analyzed by gel documentation equipment (Syngene, Cambridge, UK), and quantified using Syngene software (Genetools version 4.00 (1997–1998), Syngene, A division of Synoptics Corp, Cambridge, UK).
Raw gel data (fluorescent band volumes) collected from Syngene’s GeneTools gel analysis software were converted to a % of the 100% control (the supercoiled enzyme plus DMSO control DNA band). These were analyzed using SigmaPlot Version 13.0 (Systat Software Inc., London, UK; 2016).

[12] = stability in human plasma by UPLC-MS; format: in vitro ADME; settings: 37 °C, 24 h
Description: Compounds T-018 and T-069 were selected to analyze their stability in human plasma. A total of 1 mg of each of the two compounds was dissolved in 1 mL of dichlorometane. Then, 0.1 mL was added to 0.9 mL of 0.1% formic acid in acetonitrile for analysis by UPLC with an ACQUITY QDa mass detector from Waters (Milford, MA, USA) under the following conditions: column: ACQUITY UPLC® BEH C18 1.7 µm, 2.1 × 100 mm; mobile phase: 0.1% formic acid/acetonitrile; run time: 5 min; flow rate: 0.3 mL/min; injection volume: 0.5 µL; temperature: 40 °C. After that, 3 mL of human plasma was obtained from a volunteer under medical supervision and following the standard procedures. Then, 1 mg of T-018 and T-069 were dissolved with DMSO 2% and added to 1 mL of human plasma. Samples were incubated at 37 °C for 12 and 24 h. T-018 and T-069 were obtained by liquid extraction with dichloromethane (10 mL) three times and the solvent was eliminated for vacuum pressure. After that, 1 mL of dichlorometane was added and 0.1 mL was added to 0.9 mL of 0.1% formic acid in acetonitrile and analyzed by UPLC-MS. Percentage of degradation was calculated considering the area under the curve of each peak/the area under the curve of all peaks × 100% at 24 h only.

Structure (SMILES)	MIC [1]	MIC [2]	MIC [3]	MIC [4]	MIC [5]	MIC [6]	MIC [7]	MIC [8]	CC50 at 96 h [9]	SI (selectivity index) [10]	CC50 at 6 h [9]	inhibitory effect on M. tuberculosis gyrase supercoiling [11]	stability in human plasma [12]
CCOC(=O)c1ccc2c(c1)[n+]([O-])c(C(C)=O)c(C(F)(F)F)[n+]2[O-] [Compound T-006]	0.29 µg/mL (≈ 0.842 µM)	0.42 µg/mL (≈ 1.22 µM)	2 µg/mL (≈ 5.81 µM)	> 10 µg/mL	> 10 µg/mL	> 10 µg/mL	2.5 µg/mL (≈ 7.26 µM)	> 10 µg/mL	> 100 µg/mL	>50			
CCOC(=O)c1ccc2c(c1)[n+]([O-])c(C(=O)c1cccs1)c(C(F)(F)F)[n+]2[O-] [Compound T-011]	≤ 0.15 µg/mL	0.21 µg/mL (≈ 0.509 µM)	0.5 µg/mL (≈ 1.21 µM)	2.5 µg/mL (≈ 6.06 µM)	> 10 µg/mL	> 10 µg/mL	< 0.31 µg/mL	0.62 µg/mL (≈ 1.5 µM)		3.34	1.67 µg/mL (≈ 4.05 µM)	none of the compounds showed an inhibitory effect	
COC(=O)c1ccc2c(c1)[n+]([O-])c(C(=O)c1ccccc1)c(C(F)(F)F)[n+]2[O-] [Compound T-018]	≤ 0.15 µg/mL	0.34 µg/mL (≈ 0.867 µM)	1 µg/mL (≈ 2.55 µM)	> 10 µg/mL	5 µg/mL (≈ 12.7 µM)	> 10 µg/mL	2.5 µg/mL (≈ 6.37 µM)	2.5 µg/mL (≈ 6.37 µM)		35.37	35.4 µg/mL (≈ 90.2 µM)	none of the compounds showed an inhibitory effect	
COC(=O)c1ccc2c(c1)[n+]([O-])c(C(=O)OC)c(C)[n+]2[O-] [Compound T-022]	0.29 µg/mL (≈ 0.992 µM)	0.56 µg/mL (≈ 1.92 µM)	0.5 µg/mL (≈ 1.71 µM)	2.5 µg/mL (≈ 8.55 µM)	> 10 µg/mL	2.5 µg/mL (≈ 8.55 µM)	2.5 µg/mL (≈ 8.55 µM)	0.62 µg/mL (≈ 2.12 µM)	86.2 µg/mL (≈ 295 µM)				
CC(C)OC(=O)c1ccc2c(c1)[n+]([O-])c(C(=O)c1cccs1)c(C(F)(F)F)[n+]2[O-] [Compound T-069]	≤ 0.15 µg/mL	0.23 µg/mL (≈ 0.539 µM)	1 µg/mL (≈ 2.35 µM)	> 10 µg/mL	> 10 µg/mL	2.5 µg/mL (≈ 5.86 µM)	5 µg/mL (≈ 11.7 µM)	> 10 µg/mL		41.26	41.3 µg/mL (≈ 96.8 µM)	none of the compounds showed an inhibitory effect	high stability
CC(C)OC(=O)c1ccc2c(c1)[n+]([O-])c(C(=O)C(C)C)c(C(F)(F)F)[n+]2[O-] [Compound T-085]	≤ 0.15 µg/mL	0.13 µg/mL (≈ 0.337 µM)	1 µg/mL (≈ 2.59 µM)	2.5 µg/mL (≈ 6.47 µM)	2.5 µg/mL (≈ 6.47 µM)	5 µg/mL (≈ 12.9 µM)	0.62 µg/mL (≈ 1.6 µM)	1.25 µg/mL (≈ 3.24 µM)		45.42	45.4 µg/mL (≈ 118 µM)		
CCCOC(=O)c1ccc2c(c1)[n+]([O-])c(C(=O)OC)c(C)[n+]2[O-] [Compound T-088]	≤ 0.15 µg/mL	0.27 µg/mL (≈ 0.843 µM)	0.5 µg/mL (≈ 1.56 µM)	> 10 µg/mL	> 10 µg/mL	> 10 µg/mL	> 10 µg/mL	2.5 µg/mL (≈ 7.81 µM)	36.5 µg/mL (≈ 114 µM)	73.02			
CCCOC(=O)c1ccc2c(c1)[n+]([O-])c(C(=O)c1cccs1)c(C(F)(F)F)[n+]2[O-] [Compound T-089]	0.12 µg/mL (≈ 0.281 µM)	0.15 µg/mL (≈ 0.352 µM)	0.5 µg/mL (≈ 1.17 µM)	> 10 µg/mL	> 10 µg/mL	> 10 µg/mL	0.62 µg/mL (≈ 1.45 µM)	> 10 µg/mL		48.54	24.3 µg/mL (≈ 56.9 µM)		
